Where “and” joins values, the source holds several entries; their conditions need not be identical. Identical values can stand only once. Like-named read-outs stand apart in the source and are kept apart here.
Test: in vivo
Parameters: species or system SD rats
Protocol: 105 was dissolved in 4% NaHCO3 in saline for IV administration. The detailed procedure of dosing solution preparation was presented in Appendix I.
Thirteen (13) animals were placed on the study. The animals in IV arm were free access to food and water. One extra animal was used for blank liver and plasma generation (5 mL per animal). The resulting blank liver and plasma was then applied to the development of bioanalytical method and sample bioanalysis for the entire study.
The IV injection was conducted via foot dorsal vein. Animals were free access to food and water before dose.
The animal is restrained manually. Approximately 150 μL of blood/time point is collected into sodium heparin tube via cardiac puncture for terminal bleeding (anesthetized under carbon dioxide). Blood sample will be put on ice and centrifuged to obtain plasma sample (2000 g, 5 min under 4° C.) within 10 minutes.
The animal will be euthanized with carbon dioxide inhalation. Open abdominal cavity with scissor to expose internal organs. Hold the carcass in an upright position and allow the organs to fall forward. Cut the connective tissues and remove the organs. Then the organs are rinsed with cold saline, dried on filtrate paper, placed into a screw-top tube and weighed, snap frozen by placing into dry-ice immediately.
Plasma and liver samples were stored at approximately −80° C. until analysis. The backup samples will be discarded after three weeks after in-life completion unless requested. The unused dosing solutions will be discarded within three weeks after completion of the study
Software: The PK parameters were determined by non-compartmental model of non-compartmental analysis tool, Pharsight Phoenix WinNonlin® 6.2 software.
Concentration data within 80%-120% of LLOQ was considered within normal instrumental variation and presented in the results. Terminal t1/2 calculation: Time points were automatic selected by “best fit” model for terminal half life estimation as the first option. Manual selection was applied when “best fit” could not well define the terminal phase.

[1] = IV 1 mg/kg, 0.25 hr, individual, 1 mg/kg
[2] = IV 1 mg/kg, 1 hr, individual, 1 mg/kg
[3] = IV 1 mg/kg, 2 hr, individual, 1 mg/kg

For `CCN1CCN(C(=O)C2C3CCC(O3)C2C(=O)O)CC1` (stereo not drawn) [Compound 105], the “AUC(0-last) in liver” value (105, IV 1 mg/kg, mean) was 1019 ng·h/g, the “Liver-plasma concentration ratio of 105” value [1] was 0.646 and the “liver concentration of 105” value [1] was 988 ng/g. The “plasma concentration of 105” value [1] was 1530 ng/mL, the “Liver-plasma concentration ratio of 105” value [2] was 1.96 and the “liver concentration of 105” value [2] was 446 ng/g. For the same compound, the “plasma concentration of 105” value [2] was 228 ng/mL, the “Liver-plasma concentration ratio of 105” value [3] was 2.19 and 6.09 and the “liver concentration of 105” value [3] was 131 ng/g. The “plasma concentration of 105” value [3] was 45.2 ng/mL and 21.5 ng/mL, the “liver concentration of 105” value (IV 1 mg/kg, 6 hr, individual) was “BQL” and the “plasma concentration of 105” value (IV 1 mg/kg, 6 hr, individual) was “BQL”. For the same compound, the “liver concentration of 105” value (IV 1 mg/kg, 6 hr, mean) was “BQL”, the “plasma concentration of 105” value (IV 1 mg/kg, 6 hr, mean) was “BQL” and the “liver concentration of 105” value (IV 1 mg/kg, 10 hr, individual) was “BQL”. The “plasma concentration of 105” value (IV 1 mg/kg, 10 hr, individual) was “BQL”, the “liver concentration of 105” value (IV 1 mg/kg, 10 hr, mean) was “BQL” and the “plasma concentration of 105” value (IV 1 mg/kg, 10 hr, mean) was “BQL”. The “liver concentration of 105” value (IV 1 mg/kg, 24 hr, individual) was “BQL”, the “plasma concentration of 105” value (IV 1 mg/kg, 24 hr, individual) was “BQL” and the “liver concentration of 105” value (IV 1 mg/kg, 24 hr, mean) was “BQL”. The “plasma concentration of 105” value (IV 1 mg/kg, 24 hr, mean) was “BQL”, the Kp at 0.25 h (male, SD, rat, in vivo, iv, 1 mg/kg, IV 1 mg/kg, 0.25 hr, individual, read-out: Liver-plasma concentration ratio of 105) was 0.554 and the concentration at 0.25 hr (male, SD, rat, in vivo, iv, 1 mg/kg, IV 1 mg/kg, 0.25 hr, individual, read-out: liver concentration of 105) was 1070 ng/g. The concentration at 0.25 hr (male, SD, rat, in vivo, iv, 1 mg/kg, IV 1 mg/kg, 0.25 hr, individual, read-out: plasma concentration of 105) was 1930 ng/mL, the Kp at 0.25 h (male, SD, rat, in vivo, iv, 1 mg/kg, IV 1 mg/kg, 0.25 hr, mean, read-out: Liver-plasma concentration ratio of 105) was 0.6 and the concentration at 0.25 hr (male, SD, rat, in vivo, iv, 1 mg/kg, IV 1 mg/kg, 0.25 hr, mean, read-out: liver concentration of 105) was 1030 ng/g. It also gave a concentration at 0.25 hr (male, SD, rat, in vivo, iv, 1 mg/kg, IV 1 mg/kg, 0.25 hr, mean, read-out: plasma concentration of 105) of 1730 ng/mL, a Kp at 1 h (male, SD, rat, in vivo, iv, 1 mg/kg, IV 1 mg/kg, 1 hr, individual, read-out: Liver-plasma concentration ratio of 105) of 2.19 and a concentration at 1 h (male, SD, rat, in vivo, iv, 1 mg/kg, IV 1 mg/kg, 1 hr, individual, read-out: liver concentration of 105) of 576 ng/g. It also gave a concentration at 1 hr (male, SD, rat, in vivo, iv, 1 mg/kg, IV 1 mg/kg, 1 hr, individual, read-out: plasma concentration of 105) of 263 ng/mL, a Kp at 1 h (male, SD, rat, in vivo, iv, 1 mg/kg, IV 1 mg/kg, 1 hr, mean, read-out: Liver-plasma concentration ratio of 105) of 2.07 and a concentration at 1 h (male, SD, rat, in vivo, iv, 1 mg/kg, IV 1 mg/kg, 1 hr, mean, read-out: liver concentration of 105) of 511 ng/g. The concentration at 1 hr (male, SD, rat, in vivo, iv, 1 mg/kg, IV 1 mg/kg, 1 hr, mean, read-out: plasma concentration of 105) was 246 ng/mL, the concentration at 2 h (male, SD, rat, in vivo, iv, 1 mg/kg, IV 1 mg/kg, 2 hr, individual, read-out: liver concentration of 105) was 99.2 ng/g and the Kp at 2 h (male, SD, rat, in vivo, iv, 1 mg/kg, IV 1 mg/kg, 2 hr, mean, read-out: Liver-plasma concentration ratio of 105) was 4.14. For the same compound, the concentration at 2 h (male, SD, rat, in vivo, iv, 1 mg/kg, IV 1 mg/kg, 2 hr, mean, read-out: liver concentration of 105) was 115 ng/g, the concentration at 2 hr (male, SD, rat, in vivo, iv, 1 mg/kg, IV 1 mg/kg, 2 hr, mean, read-out: plasma concentration of 105) was 33.4 ng/mL and the AUC(0-t) (male, SD, rat, in vivo, 105 in liver, IV 1 mg/kg, mean, read-out: AUC(0-t)) was 1020. It also gave a Cmax (male, SD, rat, in vivo, 105 in liver, IV 1 mg/kg, mean, read-out: Cmax) of 1030 ng/mL, an MRT inf (male, SD, rat, in vivo, 105 in plasma, IV 1 mg/kg, mean) of 19.7 min and a Cmax (male, Sprague-Dawley, rat, in vivo, 105, IV 1 mg/kg, mean, read-out: Cmax in liver) of 1030 ng/g. The Tmax (male, Sprague-Dawley, rat, in vivo, 105 in liver, IV 1 mg/kg, mean) was 15 min, the clearance (male, Sprague-Dawley, rat, in vivo, 105 in plasma, IV 1 mg/kg, mean) was 10.9 mL/min/kg and the AUC(0-t) (male, Sprague-Dawley, rat, in vivo, 105 in plasma, IV 1 mg/kg, mean, read-out: AUC(0-t) (AUClast)) was 1510 ng·h/mL. It also gave an AUC(0-inf) (male, Sprague-Dawley, rat, in vivo, 105 in plasma, IV 1 mg/kg, mean, read-out: AUC(0-∞) (AUCINF)) of 1530 ng·h/mL, a Vd (male, Sprague-Dawley, rat, in vivo, 105 in plasma, IV 1 mg/kg, mean, read-out: Vss) of 0.215 L/kg and a half-life (male, Sprague-Dawley, rat, in vivo, 105 in plasma, IV 1 mg/kg, mean, read-out: t1/2z (terminal half life) (converted)) of 18.5 min.

— patent US11236102B2, “Oxabicycloheptane prodrugs” (Lixte Biotechnology, Inc., priority 2015, dated 2022)
